What was measured:
Format in all cases: in vivo
[1] = test system: adult brown dog ticks (Rhipicephalus sanguineus); assay: Rhipicephalus sanguineus in-vitro contact test, adult brown dog ticks; settings: 48 h, read-out: efficacy (ticks dead or moribund)
Method: Rhipicephalus sanguineus—In-Vitro Contact Tests with Adult Brown Dog Ticks
(§1) 9 mg compound is solved in 1 mL acetone and diluted with acetone to the desired concentration. 250 μL of the test solution is filled in 25 mL glass test tubes and homogeneously distributed on the inner walls by rotation and tilting on a shaking device (2 h at 30 rpm). With a compound concentration of 900 ppm, an inner surface of 44.7 cm^2 and a homogeneous distribution, a dose of 5 μg/cm^2 is achieved.
After the solvent has evaporated, each test tube is filled with 5-10 adult brown dog ticks (Rhipicephalus sanguineus), closed with a perforated lid and incubated in a lying position at room temperature and relative humidity. After 48 hours efficacy is determined. The ticks are patted on the ground of the tubes and are incubated on a heating plate at 45-50° C. for at most 5 minutes. Immotile or uncoordinated moving ticks, which are not able to escape the heat by climbing upwards, are marked as dead or moribund.
An efficacy of 100% means all ticks are dead or moribund; 0% means no ticks are dead or moribund.

[2] = test system: brown planthopper (Nilaparvata lugens); assay: Nilaparvata lugens spray test; settings: 96 h
Summary of the method: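 Rice plants (Oryza sativa) sprayed with compound formulated in acetone/DMF with alkylarylpolyglycol ether emulsifier (1000 ppm in diluting water), then infested with planthoppers. Mortality (%) scored after 4 days; 100% = all insects killed, 0% = none killed.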

[3] = test system: fall armyworm larvae (Spodoptera frugiperda); assay: whole plant or invertebrate; settings: 168 h
Summary of the method: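 Maize leaf sections sprayed with compound in acetone/DMF with alkylarylpolyglycol ether emulsifier diluted in water, then infested with fall armyworm larvae once dry. Mortality (%) scored after 7 days; 100% = all caterpillars killed.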

[4] = test system: larvae of the banded cucumber beetle (Diabrotica balteata); assay: Diabrotica balteata spray test; settings: 168 h, 100 g/ha (=32 μg/well), after 7 days, read-out: efficacy (seedling growth)
Summary of the method: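 Germinated wheat seeds on agar (5 per well) were sprayed with compound formulated in acetone/DMF and diluted in water with 1000 ppm emulsifier. Each unit was then infested with 10–20 larvae. Efficacy % was scored after 7 days as seedling growth relative to an untreated, uninfested control (100% = normal growth).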

[5] = test system: cattle tick larvae (Rhipicephalus microplus), strain Parkhurst, resistant against synthetic pyrethroids; assay: Rhipicephalus (Boophilus) microplus in-vitro contact test, larval cattle tick; settings: 5 μg/cm^2 (=500 g/ha), after 48 hours
Method: Rhipicephalus (Boophilus) Microplus—In-Vitro Contact Tests Larval Cattle Tick (Strain Parkhurst, Resistant Against Synthetic Pyrethroids)
as §1
After the solvent has evaporated, each test tube is filled with 20-50 cattle tick larvae (Rhipicephalus microplus), closed with a perforated lid and incubated in a horizontal position at 85% relative humidity and 27° C. in an incubator. After 48 hours efficacy is determined. The larvae are patted on the ground of the tubes and negative geotactic behavior is recorded.
An efficacy of 100% means all larvae are dead or moribund; 0% means no larvae are dead or moribund.

[6] = test system: adult cat fleas (Ctenocephalides felis); assay: Ctenocephalides felis in-vitro contact test, adult cat flea; settings: 5 μg/cm^2 (=500 g/ha), after 48 hours
Method: Ctenocephalides felis—In-Vitro Contact Tests Adult Cat Flea
as §1
After the solvent has evaporated, each test tube is filled with 5-10 adult cat fleas (Ctenocephalides felis), closed with a perforated lid and incubated in a lying position at room temperature and relative humidity. After 48 hours efficacy is determined. The fleas are patted on the ground of the tubes and are incubated on a heating plate at 45-50° C. for at most 5 minutes. Immotile or uncoordinated moving fleas, which are not able to escape the heat by climbing upwards, are marked as dead or moribund.
An efficacy of 100% means all fleas are dead or moribund; 0% means no fleas are dead or moribund.

[7] = test system: green peach aphid (Myzus persicae); assay: Myzus persicae spray test (MYZUPE); settings: 120 h, 100 g/ha, after 5 days
Summary of the method: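 Chinese cabbage leaf disks infested with all instars of Myzus persicae were sprayed with compound formulated in acetone/dimethylformamide and diluted in water with 1000 ppm alkylarylpolyglycol ether emulsifier. Percent mortality was scored after 5 days, 100% meaning all aphids killed.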

[8] = test system: larvae of the southern green stink bug (Nezara viridula); assay: whole plant or invertebrate; settings: 96 h
Summary of the method: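 Compound in acetone/DMF was diluted in water with 1000 ppm alkylarylpolyglycol ether emulsifier. Barley plants were sprayed with it, then infested with Nezara viridula larvae. Mortality % was scored after 4 days (100% = all killed).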

| Compound | pest or weed control at 5 µg/cm2, 500 g/ha [1] [%] | mortality at 500 g/ha [2] [%] | mortality at 100 g/ha [3] [%] | pest or weed control at 32 µg/disc, 100 g/ha [4] [%] | efficacy (larvae dead or moribund) [5] [%] | efficacy (fleas dead or moribund) [6] [%] | mortality at 100 g/ha [7] [%] | mortality at 500 g/ha [8] [%] |
| --- | --- | --- | --- | --- | --- | --- | --- | --- |
| CCN(C)C(=O)c1cc(-n2nc(C)nc2[C@H](C)NC(=O)c2cc(C(F)(F)F)cc(C(F)(F)F)c2)ncn1 [I-63] | 100 | 100 | 100 | 100 | 100 | 100 | – | – |
| Cc1nc([C@H](C)NC(=O)c2cc(Cl)cc(OC(F)(F)F)c2)n(-c2cc(C(N)=O)ncn2)n1 [I-85] | 100 | 90 | 100 | 100 | 100 | 100 | 100 | 100 |
| C[C@H](NC(=O)c1cc(F)cc(OC(F)(F)F)c1)c1ncnn1-c1cc(C(N)=O)ncn1 [I-80] | 100 | 100 | 100 | 100 | 100 | 100 | 100 | 100 |
| Cc1nc([C@H](C)NC(=O)c2cc(Cl)cc(Cl)c2)n(-c2cc(C(N)=O)ncn2)n1 [I-95] | 100 | – | 100 | 100 | 100 | 100 | 90 | 100 |
| C[C@H](NC(=O)c1cc(Cl)cc(Cl)c1)c1ncnn1-c1cc(C(N)=O)ncn1 [I-69] | 100 | – | 100 | 100 | 100 | 100 | 70 | 100 |
| C[C@H](NC(=O)c1cccc(OC(F)(F)F)c1)c1ncnn1-c1cc(C(N)=O)ncn1 [I-50] | 100 | 100 | 100 | 100 | 100 | 100 | 90 | – |
| CNC(=O)c1cc(-n2nc(C)nc2[C@H](C)NC(=O)c2cc(Cl)cc(OC(F)(F)F)c2)ncn1 [I-87] | 100 | – | 100 | 100 | 100 | 100 | 100 | 100 |
| C[C@H](NC(=O)c1cc(C(F)(F)F)cc(C(F)(F)F)c1)c1ncnn1-c1cc(C(=O)N(C)CC2CC2)ncn1 [I-76] | 100 | 100 | 100 | 100 | 100 | 100 | – | 100 |
| CCN(C)C(=O)c1cc(-n2ncnc2[C@H](C)NC(=O)c2cc(C(F)(F)F)cc(C(F)(F)F)c2)ncn1 [I-64] | 100 | 100 | 100 | 100 | 100 | 100 | 90 | 100 |
| CC(C)N(C)C(=O)c1cc(-n2ncnc2[C@H](C)NC(=O)c2cc(OC(F)(F)F)cc(C3CC3)c2)ncn1 [I-57] | 100 | 100 | 100 | – | 100 | 100 | – | – |
| CNC(=O)c1cc(-n2ncnc2[C@H](C)NC(=O)c2cc(OC(F)F)cc(C3CC3)c2)ncn1 [I-67] | 100 | 100 | 100 | 100 | 100 | 100 | 90 | 100 |
| C[C@H](NC(=O)c1cc(Cl)cc(OC(F)(F)F)c1)c1ncnn1-c1cc(C#N)ncn1 [I-18] | 100 | – | 100 | 100 | 100 | 90 | 90 | 100 |
| Cc1nc([C@H](C)NC(=O)c2cc(Br)cc(OC(F)F)c2)n(-c2cc(C(N)=O)ncn2)n1 [I-89] | 100 | – | 100 | 100 | 100 | 100 | 100 | 100 |
| CNC(=O)c1cc(-n2nc(C)nc2[C@H](C)NC(=O)c2cc(Br)cc(OC(F)(F)F)c2)ncn1 [I-65] | 100 | – | 100 | 100 | 100 | 100 | 90 | 100 |
| Cc1nc([C@H](C)NC(=O)c2cc(OC(F)F)cc(OC(F)F)c2)n(-c2cc(C(N)=O)ncn2)n1 [I-98] | 100 | – | 100 | 100 | 100 | 100 | 100 | 100 |
| Cc1nc([C@H](C)NC(=O)c2cc(C(F)(F)F)cc(C(F)(F)F)c2)n(-c2cc(C(=O)N(C)CC3CC3)ncn2)n1 [I-75] | 100 | 100 | 100 | 100 | 100 | 100 | – | 100 |

Reference: patent publication US12612386B2, “Heteroaryl-triazole compounds as pesticides” (Bayer Aktiengesellschaft, priority 2020, dated 2026)
